# Values of other authors as cited in US8088935B2, “Compounds and methods for the treatment of asthma” (Ironwood Pharmaceuticals, Inc., priority 2003, dated 2012).
# Key:
# [1] = toxicity studies
smiles,measurement,setting,value
"O=C(O)c1cc(=O)c2c(OCC(O)COc3cccc4oc(C(=O)O)cc(=O)c34)cccc2o1 [Cromolyn, disodium cromoglycate]",biologic half-life,in vivo,46-99 minutes
same,Peak plasma levels occur (time),inhaled,≤ 15 min
same,acute toxicity,[1],impressively low order of acute toxicity
